Assay results as given in the Kinase Knowledgebase extract (Sharma et al. 2016).
Values joined by “and” are separate entries in the source; they are usually repeats but may differ in a detail not shown here. Equal entries are not always repeated.

Tests used:
MAPK14 (Lewis rat) = assay: Adjuvant-Induced Arthritis Model
MAPK14 (human) = MAPK14 (human) (UniProt Q16539); assay: p38 --- TNFalpha Release Inhibition; details: monocyte
MAPK14 = MAPK14 (UniProt Q16539); assay: p38-alpha Inhibition
Sequence of MAPK14 (Q16539 whole entry, looked up): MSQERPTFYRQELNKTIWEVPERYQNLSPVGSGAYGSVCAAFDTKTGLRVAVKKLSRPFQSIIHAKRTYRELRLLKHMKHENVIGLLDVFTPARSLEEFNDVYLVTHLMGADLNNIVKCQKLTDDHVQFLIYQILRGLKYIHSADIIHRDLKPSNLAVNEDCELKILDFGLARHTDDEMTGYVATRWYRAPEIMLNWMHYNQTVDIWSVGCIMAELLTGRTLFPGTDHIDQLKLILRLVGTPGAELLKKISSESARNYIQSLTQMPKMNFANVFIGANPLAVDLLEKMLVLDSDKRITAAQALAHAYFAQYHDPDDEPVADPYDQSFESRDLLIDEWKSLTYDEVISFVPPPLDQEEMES

Sequence of MAPK14 (human) (Q16539 whole entry, looked up): as above

SMILES: C[S+]([O-])c1ccc(-c2cc(-c3ccncc3)c(-c3ccc(F)cc3)[nH]2)cc1 (stereo not given)
- ID50 (MAPK14 (Lewis rat)): 7.4 mg/kg/day
- score (MAPK14 (Lewis rat)): 3.6 and 1.6
- IC50 (MAPK14 (human)): 65 nM

SMILES: CC(C)(C)Oc1ccc(-c2[nH]c(-c3ccccc3)cc2-c2ccncc2)cc1
- IC50 (MAPK14): > 1000 nM

SMILES: Fc1ccc(-c2[nH]c(-c3ccc(Br)cc3)cc2-c2ccncc2)cc1
- IC50 (MAPK14): 100 nM

SMILES: CCOC(=O)c1ccc(-c2[nH]c(-c3ccccc3)cc2-c2ccncc2)cc1
- IC50 (MAPK14): > 10000 nM

SMILES: CS(=O)(=O)c1ccc(-c2cc(-c3ccncc3)c(-c3ccc(F)cc3)[nH]2)cc1
- IC50 (MAPK14 (human)): 23 nM

SMILES: COc1ccc2c(c1)c(CC(=O)O)c(C)n2C(=O)c1ccc(Cl)cc1
- score (MAPK14 (Lewis rat)): 4.9 and 2.9

SMILES: Fc1ccc(-c2[nH]c(-c3ccc(Cl)cc3)cc2-c2ccccn2)cc1
- IC50 (MAPK14): > 10000 nM

SMILES: O=c1c(-c2ccncc2)c(-c2ccc(F)cc2)[nH]n1-c1ccc(Cl)cc1
- inhibition (MAPK14; concentration not given here): 43%
